Seven molecules from ChEMBL document CHEMBL1817644, “Rational design of SAM analogues targeting SAM-II riboswitch aptamer” (Bioorg Med Chem Lett, 2011) can be followed below.

Type in all cases: nucleic-acid assay
Experiment [1] has as its system Nucleic Acid. In words: Binding affinity to 2-amino purine labelled SAM2 riboswitch aptamer assessed as change in fluorescence at 5 mM to 10 mM at pH 8.3 by fluorescence binding assay.
In experiment [2] the test system is Nucleic Acid. In words: Binding affinity to SAM1 riboswitch aptamer assessed as change in heat at 0.5 mM at pH 7.5 by Isothermal titration calorimetry.
For experiment [3], the system named is Nucleic Acid. In words: Ratio of S-adenosylmethionine Kd to compound Kd for SAM2 riboswitch aptamer.

pKd: −log10 of the molar value. Calls of active or inactive are those of the source. No cut-off for these calls is given here.

Regarding `C[S+](CC[C@H](NC(=O)CNCCN)C(=O)O)C[C@H]1O[C@@H](n2cnc3c(N)ncnc32)[C@H](O)[C@@H]1O` (stereo not given in full), in experiment [1], the result was inactive. Still for that read-out and setting: the value for `C[S+](CC[C@H](NC(=O)CN)C(=O)O)C[C@H]1O[C@@H](n2cnc3c(N)ncnc32)[C@H](O)[C@@H]1O` (stereo not given in full) was “inactive”. For the molecule `C[S+](CC[C@H](N)C(=O)NCCN)C[C@H]1O[C@@H](n2cnc3c(N)ncnc32)[C@H](O)[C@@H]1O` (stereo not given in full), in experiment [1], the pKd is 5.51. The outcome in experiment [2] was inactive. On to `Nc1ncnc2c1ncn2[C@@H]1O[C@H](CSCC[C@H](N)C(=O)O)[C@@H](O)[C@H]1O`, for which the result in experiment [1] was inactive. As to `C[S+](CC[C@H](N)C(=O)[O-])C[C@H]1O[C@@H](n2cnc3c(N)ncnc32)[C@H](O)[C@@H]1O` (stereo not given in full) [ADEMETIONINE], in experiment [1], the outcome was Active and the pKd is 5.22. For the molecule `CN1/C(=C\c2cc[n+](CCCC(=O)N[C@@H](CC[S+](C)C[C@H]3O[C@@H](n4cnc5c(N)ncnc54)[C@H](O)[C@@H]3O)C(=O)O)c3ccccc23)Sc2ccccc21` (stereo not given in full), the result in experiment [1] was Active. Further, the Ratio in experiment [3] worked out at 2.

On to `C[S+](CC[C@H](NC(=O)CCN)C(=O)O)C[C@H]1O[C@@H](n2cnc3c(N)ncnc32)[C@H](O)[C@@H]1O` (stereo not given in full), for which the outcome in experiment [1] was inactive.
